Test results published in paper PMC11357992, “Non-invasive mapping of systemic neutrophil dynamics upon cardiovascular injury” (Nature Cardiovascular Research, 2023).
Several values for one entry are separate records, joined by “and”; a condition that tells them apart may be missing. Equal values may be shown once. Where no end group is shown, it is not given here. Side-chain parts run from the residue outwards. rhodamine‑labelled PEGylated perfluoro‑15‑crown‑5 ether nanoemulsion = not defined here; carboxyfluorescein = N-terminal fluorescence label (CF)

Experiments:
[1] = tested on: human neutrophils; test: 1H/19F MRI of human neutrophils incubated with hNPPFCs/ConPFCs (healthy and STEMI); assay type: cell-based; settings: versus ConPFC controls
Description: After the incubation period, cells were subjected to density gradient centrifugation to separate PFC-loaded cells from free PFCs. Afterward, samples were analyzed by MRI to determine the ^19F signal within the cell layer as described previously.
To determine PFC uptake by human neutrophils by ^19F MRI, cells were isolated from 10 ml of whole blood by density centrifugation. Subsequently, neutrophils (5 × 10^6) were resuspended in 3 ml DMEM and incubated for up to 8 h at 37 °C under constant motion with 10 µl ^hNPPFCs. Afterward, cells were centrifuged at 350g, washed three times with PBS, resuspended in 1 ml MACS buffer, purified by Percoll gradient centrifugation and analyzed by ^1H/^19F MRI.

[2] = tested on: bone marrow neutrophils; test: In situ labeling of bone marrow neutrophils and tracking after MI, 1H/19F MRI of bone marrow; assay type: in vivo, mouse
Description: For labeling of neutrophils before MI, mice were anesthetized (1.5% isoflurane) and 1 mmol per kg BW PFCs were injected intravenously via the tail vein on 3 consecutive days. Induction of MI was essentially carried out as previously described. For inhibiting the egress of neutrophils from the bone marrow in a subset of experiments, a cocktail of neutralizing antibodies was injected i.p. 1 h before and 4 h after MI (CXCL1, CXCL2, G-CSF, GM-CSF, 50 µg each, Thermo Fisher). To generate neutropenic mice, 48 and 24 h before MI, 500 µg of the Ly6G-depletion antibody (BioXcell, clone 1A8) was injected i.p. in independent experiments.
All experiments were performed with a vertical 9.4 T Bruker AVANCE^III Wide Bore NMR spectrometer (Bruker) driven by ParaVision 5.1 and operating at frequencies of 400.21 MHz for ^1H measurements and 376.54 MHz for ^19F measurements using a Bruker microimaging unit, Micro2.5, with actively shielded gradient sets (1.5 T m^−1). Data were acquired using a 25-mm quadrature ^19F resonator with one channel tunable to both ^1H and ^19F. Mice were anesthetized with 1.5% isoflurane and kept at 37 °C. After acquisition of morphological ^1H images, the resonator was tuned to ^19F, and anatomically matching ^19F images were recorded essentially as described previously. […]
Slice packages were placed in sagittal orientation to cover the complete bone marrow in the tibia and femur in both legs using the following scan details: ^1H RARE, TR = 2,000 ms, FOV = 4.00 × 2.56 cm^2, matrix = 256 × 256, ST = 1 mm, tAcq = 1 min; ^19F RARE, TR = 2,500 ms, FOV = 4.00 × 2.56 cm^2, matrix = 64 × 64, ST = 3 mm, tAcq = 10 min.
Extended Data Fig. 4 Experimental timeline and whole body ^1H/^19F MRI of a ^mNPPFC-treated mouse. a, To label neutrophils within the bone marrow, ^mNPPFCs (or ^ConPFCs as control) were intravenously injected on three consecutive days (day −3, −2, −1) followed by ^1H/^19F MRI of the bone marrow on day 0. Subsequently, MI was induced and bone marrow and the infarcted heart were analyzed by combined ^1H/^19F MRI 24 h later. b, In separate experiments, neutralizing antibodies against CXCL1, CXCL2, G-CSF and GM-CSF were injected intraperitoneally (i. p.; 50 µg) 1 h before and 4 h post induction of MI to inhibit the MI-stimulated egress of neutrophils from the bone marrow and their infiltration into the heart. c, To determine the whole body biodistribution of ^mNPPFCs, ^mNPPFCs were intravenously injected daily over three consecutive days. Afterwards, whole body ^1H/^19F MRI measurements were performed to visualize the labelled neutrophils in the different bone marrow compartments. The bright ^19F spot in the middle represents the liver – an organ known to be as major site of (PFC) nanoparticle deposition.
Extended Data Fig. 5 ^mNPPFC incorporation into the bone marrow and cardiac function after MI. a, Impact of neutrophil depletion on ^mNPPFC incorporation into the bone marrow: For in vivo labeling of bone marrow neutrophils, ^mNPPFCs were injected intravenously and 24 h later the ^19F signal within the femur and tibia was determined (gray). […] The marrow mainly belongs to the diaphysis whereas the growth of the bones takes place at the inner and outer epiphysis. […]

[3] = Liver serum markers after PFC injection; assay type: in vivo, mouse; settings: i.v. over 3 consecutive days, 24 h after last injection
Description: ^ConPFCs, ^mNPPFCs (each at 1 mM per kg BW) or saline were injected i.v. over 3 consecutive days. Twenty-four hours after the last injection, mice were killed, and blood samples were withdrawn to determine GLDH, AST, ALP, ALT and bilirubin levels by standard clinical procedures. Furthermore, the liver and spleen were dissected, fixed in formalin and snap frozen. Subsequently, 4-µm cryosections were cut and stained with hematoxylin and eosin as described previously.
Extended Data Fig. 3 Assessment of ^mNPPFC/^ConPFC biodistribution, liver serum markers and histology of liver and spleen. a, Biodistribution of intravenously injected ^mNPPFCs was determined via ^19F MRI measurements at distinct time points after injection (1, 3, 6 and 24 h after injection). Shown are quantification of fluorine signal intensities in the blood, liver and spleen indicating a fast wash-out from the blood accompanied by a strong influx into the liver while signal intensities in the spleen were constant over the entire observation period; a.u. = arbitrary units. b, Serum levels of GLDH (glutamate dehydrogenase), AST (aspartate aminotransferase), ALP (alkaline phosphatase), ALT (alanine aminotransferase) and bilirubin after intravenous application of NaCl as control, ^ConPFCs or ^mNPPFCs. c + d, 4 µm sections of liver (C) and spleen (D) stained with hematoxylin and eosin. Organs were excised and processed for histology 24 h post injection of NaCl (upper row), ^ConPFCs (middle), ^mNPPFCs (lower). Representative liver/spleen images of organs from three different animals are shown. Scale bars indicate 100 µm. Data are mean values ± SD of n = 6 (a), n = 4-6 (b) and n = 6 (c + d) independent experiments. Source data

Substance | 19F signal of human neutrophils exposed to PFCs (1H/19F MRI) [1] | 19F signal of bone marrow, Post ([2]; 1H/19F MRI, after MI, panel B raw data, single animals) | 19F signal of bone marrow, Pre ([2]; 1H/19F MRI, before MI, panel B raw data, single animals) | 19F signal within the femur and tibia (bone marrow) ([2]; Ctrl (no depletion), 24 h after i.v. mNPPFC injection, individual experiments) | change of bone marrow 19F signal 24 h after MI ([2]; femur and tibia, daily i.v. injections over 3 d before MI) | BM 19F signal post MI normalized to the 19F signals detected before induction of MI ([2]; mNPPFC-labeled mice, Nabs = plus antibodies against CXCL1, CXCL2, G-CSF, GM-CSF i.p. 1 h before and 4 h post MI, individual experiments) | adverse side effects (liver serum markers, histology of liver and spleen) [3]
hNPPFCs: PEGylated rhodamine-labeled perfluorocarbon nanoemulsion coupled with human neutrophil-specific peptide hNP (carboxyfluorescein-DLVTSKLQVGGGC; also: C-terminal Cys coupled via maleimide-PEG2000-DSPE to rhodamine-labelled perfluorocarbon nanoemulsion) | significantly stronger |  |  |  |  |  | 
mNPPFCs: PEGylated rhodamine-labeled perfluoro-15-crown-5 ether nanoemulsion (maleimide PFCs) coupled with murine neutrophil-specific peptide mNP (carboxyfluorescein-DFYKPMPNLRITGGGC([maleimide‑PEG2000‑DSPE-rhodamine‑labelled PEGylated perfluoro‑15‑crown‑5 ether nanoemulsion]); reading uncertain; also: printed as DFYKPMPNLRIT-GGG-C) |  | 384270 and 284234 and 342343 and 246818 and 294364 and 237217 and 352300 | 555612 and 765758 and 385254 and 440946 and 378880 and 354237 and 356979 and 487088 and 602276 | 1.88E+06 and 1.21E+06 and 1.06E+06 and 1.73E+06 | substantial reduction | 69.1617 and 64.46 and 69.676 and 82.4597 and 48.7011 and 58.4948 and 73.1944 and 76.1165 | neither analysis of liver serum markers (GLDH, AST, ALP, ALT, bilirubin) nor histological examination of the liver and spleen revealed any evidence for adverse side effects
